According to US20150218172A1, “Pyrrolo[2,3-D]Pyrimidine Tropomyosin-Related Kinase Inhibitors” (PFIZER LIMITED, priority 2012, published 2015):
pIC50: −log10 of the molar value.

Molecular target: T1, TrkA (Homo sapiens, UniProt P04629)
T1 construct: aa 441-796; His; purchased Invitrogen PV3144
Experiment: Isolated TRK enzyme assay (HTRF KinEASE-TK kit), PV3144 TrkA enzyme assay
Assay type: biochemical
Details: PV3144 TrkA enzyme assay, recombinant His-tagged cytoplasmic domain aa 441-796, 4 nM enzyme, 40 uM ATP; arithmetic mean where more than one reading; read-out: Trka enzyme (IC50)
Description: Isolated TRK Enzyme assays use the HTRF KinEASE-TK kit (Cisbio Cat#62TK0PEJ) with recombinant His-tagged cytoplasmic domains of each TRK receptor sourced from Invitrogen (see table below). This activity-assay measures the phosphorylation of tyrosine residues within a substrate from the HTRF kit which has been validated by Cisbio for a variety of tyrosine kinases including the TRK receptors.
0.5 mM stock solutions of test compounds are prepared and serially diluted in 100% DMSO. A standard curve using the compound of Example 135 disclosed in WO2005/116035 of 150 uM is also prepared on each test plate. High percentage effect (HPE) is defined by 150 uM (using the compound of Example 135 as disclosed in WO2005/116035) and 0% effect (ZPE) is defined by 100% DMSO. Greiner low volume black plates containing 0.2 ul of serially diluted compound, standard and HPE/ZPE are created using the Bravo nanolitre dispenser.
1X enzyme buffer is prepared from 5X Enzymatic Buffer from the Cisbio KinEASE TK kit using MilliQ water. The buffer is then supplemented with 10 mM MgCl and 2 mM DTT (both from Sigma). In the case of TRKB, the buffer is also supplemented with 125 nM Supplement Enzymatic Buffer (SEB) from the Cisbio kit.
2X FAC of enzyme and 2X FAC ATP diluted in 1X complete enzyme buffer is incubated at room temperature for 20 minutes to preactivate the enzyme. Following this preactivation step, 5 ul/well of enzyme+ATP mix is added using a Multidrop Micro to the assay plate, spotted with 0.2 ul 100% DMSO compound. This is left for 20 mins at room temperature before adding 5 ul of 2 uM TK-substrate-Biotin (from the Cisbio kit) diluted in 1X enzyme buffer (1 uM FAC) using the Multidrop Micro. The reaction is incubated at room temperature for the optimized assay reaction time (see table). The reaction is stopped by adding 10 ul/well HTRF Detection Buffer containing 0.25 uM Streptavidin-XL665 (0.125 uM FAC) and 1:200 TK Antibody-Cryptate using a Multidrop.
After the Detection Reagent addition, plates are covered and incubated at room temperature for 60 minutes. HTRF signal is read using an Envision reader, measured as a ratio of emissions at two different wavelengths, 620 nm and 665 nm. […] Test compound data are expressed as percentage inhibition defined by HPE and ZPE values for each plate. Percentage inhibition in the presence of test compound is plotted against compound concentration on a log scale to determine an IC50 from the resultant sigmoid curve.
Below are TrkA IC50 data generated using the PV3144 TrkA enzyme assay. Where more than one reading was taken, the arithmetic mean is presented.

T1 sequence (P04629 441-796): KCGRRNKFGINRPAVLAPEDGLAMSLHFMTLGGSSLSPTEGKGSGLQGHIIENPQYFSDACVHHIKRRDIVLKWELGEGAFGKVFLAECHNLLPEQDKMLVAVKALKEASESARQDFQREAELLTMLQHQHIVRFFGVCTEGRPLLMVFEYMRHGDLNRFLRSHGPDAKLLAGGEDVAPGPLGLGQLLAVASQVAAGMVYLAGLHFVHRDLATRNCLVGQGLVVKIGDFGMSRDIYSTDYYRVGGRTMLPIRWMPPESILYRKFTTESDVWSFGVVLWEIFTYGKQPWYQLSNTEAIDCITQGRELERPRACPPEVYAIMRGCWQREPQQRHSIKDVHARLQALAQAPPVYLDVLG

`C[C@H](CO)n1cc(C(=O)c2cc(NC(=O)Cc3cccc(C(F)(F)F)c3)ccn2)c2cncnc21` [Example 19, N-[2-({7-[(2R)-1-hydroxypropan-2-yl]-7H-pyrrolo[2,3-d]pyrimidin-5-yl}carbonyl)pyridin-4-yl]-2-[3-(trifluoromethyl)phenyl]acetamide] was tested. Which pIC50 did it give?
Its pIC50 is 7.01.

With `O=C(Cc1ccc(Cl)cn1)Nc1ccnc(C(=O)c2cn(C(CO)CO)c3ncncc23)c1` [Example 100, 2-(5-chloropyridin-2-yl)-N-(2-{[7-(1,3-dihydroxypropan-2-yl)-7H-pyrrolo[2,3-d]pyrimidin-5-yl]carbonyl}pyridin-4-yl)acetamide] as the molecule, how does the pIC50 read?
Its pIC50 is 5.66.

`CC(C)n1cc(C(=O)c2ccnc(NC(=O)Cc3ccccc3OC(F)(F)F)c2)c2cncnc21` [Example 119, N-(4-{[7-(propan-2-yl)-7H-pyrrolo[2,3-d]pyrimidin-5-yl]carbonyl}pyridin-2-yl)-2-[2-(trifluoromethoxy)phenyl]acetamide] was tested. Which pIC50 did it give?
The pIC50 was 7.15.

With `CC1(n2cc(C(=O)c3cc(NC(=O)Cc4ccc(C(F)(F)F)c(F)c4)ccn3)c3cncnc32)COC1` [Example 170, 2-[3-fluoro-4-(trifluoromethyl)phenyl]-N-(2-{[7-(3-methyloxetan-3-yl)-7H-pyrrolo[2,3-d]pyrimidin-5-yl]carbonyl}pyridin-4-yl)acetamide] as the molecule, how does the pIC50 read?
The pIC50 was 7.00.

How did the pIC50 turn out when `CC(C)(CO)n1cc(C(=O)c2cc(NC(=O)Cc3ccc(Cl)cn3)ccn2)c2cncnc21` [Example 58, 2-(5-chloropyridin-2-yl)-N-(2-{[7-(1-hydroxy-2-methylpropan-2-yl)-7H-pyrrolo[2,3-d]pyrimidin-5-yl]carbonyl}pyridin-4-yl)acetamide] was run?
The pIC50 was 7.94.

How did the pIC50 turn out when `Cc1cc(C(C)C)nn1CC(=O)Nc1cc(C(=O)c2cn(C(C)C)c3ncncc23)ccn1` [Example 151, 2-[5-methyl-3-(propan-2-yl)-1H-pyrazol-1-yl]-N-(4-{[7-(propan-2-yl)-7H-pyrrolo[2,3-d]pyrimidin-5-yl]carbonyl}pyridin-2-yl)acetamide] was run?
The pIC50 was 7.67.

With `Cc1cc(C(F)(F)F)nn1CC(=O)Nc1ccnc(C(=O)c2cn([C@H](C)CO)c3ncncc23)c1` [Example 21, N-[2-({7-[(2R)-1-hydroxypropan-2-yl]-7H-pyrrolo[2,3-d]pyrimidin-5-yl}carbonyl)pyridin-4-yl]-2-[5-methyl-3-(trifluoromethyl)-1H-pyrazol-1-yl]acetamide] as the molecule, how does the pIC50 read?
Its pIC50 is 7.02.

`CC(C)n1cc(C(=O)c2cc(NC(=O)Cc3ccc(C#N)cn3)ccn2)c2cncnc21` [Example 109, 2-(5-Cyanopyridin-2-yl)-N-{2-[(7-isopropyl-7H-pyrrolo[2,3-d]pyrimidin-5-yl)carbonyl]pyridin-4-yl}acetamide] was tested. Which pIC50 did it give?
Its pIC50 is 7.27.

How did the pIC50 turn out when `CC(C)c1cn(CC(=O)Nc2cc(C(=O)c3cn(C(C)C)c4ncncc34)ccn2)nn1` [Example 164, N-(4-{[7-(propan-2-yl)-7H-pyrrolo[2,3-d]pyrimidin-5-yl]carbonyl}pyridin-2-yl)-2-[4-(propan-2-yl)-1H-1,2,3-triazol-1-yl]acetamide] was run?
The pIC50 was 7.50.

`CC(C)n1cc(C(=O)c2ccnc(NC(=O)Cc3ccc(Cl)cc3)c2)c2cnc(N)nc21` [Example 44, N-[4-(2-Amino-7-isopropyl-7H-pyrrolo[2,3-d]pyrimidine-5-carbonyl)-pyridin-2-yl]-2-(4-chloro-phenyl)-acetamide] was tested. Which pIC50 did it give?
The pIC50 was 7.99.

`O=C(Cc1ccc(C(F)(F)F)cc1)Nc1cc(C(=O)c2cn(CCO)c3ncncc23)ccn1` [Example 141, N-(4-{[7-(2-hydroxyethyl)-7H-pyrrolo[2,3-d]pyrimidin-5-yl]carbonyl}pyridin-2-yl)-2-[4-(trifluoromethyl)phenyl]acetamide] was tested. Which pIC50 did it give?
Its pIC50 is 7.79.

`O=C(Cc1ccc(Cl)c(Cl)c1)Nc1cc(C(=O)c2cn(CCO)c3ncncc23)ccn1` [Example 138, 2-(3,4-dichlorophenyl)-N-(4-{[7-(2-hydroxyethyl)-7H-pyrrolo[2,3-d]pyrimidin-5-yl]carbonyl}pyridin-2-yl)acetamide] was tested. Which pIC50 did it give?
Its pIC50 is 7.51.
